Laboratory results reported in patent publication US12459951B2, “Compounds that interact with RAS superfamily proteins for treatment of cancers, inflammatory diseases, rasopathies, and fibrotic disease” (SHY Therapeutics, LLC, priority 2022, dated 2025).

What was measured:
Akt phosphorylation = test: Akt Phosphorylation Assay (western blot), Panc-1; type: cell-based, human; settings: at 10 μM, * = activation
Summary of the method: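 Panc-1 (KRas G12D) cells were treated with compound at 10 μM final (0.3% DMSO) for 6 h at 37 °C, or with serial dilutions for IC50. Cells were either serum-starved overnight in 0.5% FBS and then stimulated with 1.5 ng/ml EGF for 15 min, or kept in 10% FBS without stimulation. Akt Ser473 phosphorylation in lysates was read by western blot.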

KRas G12D mutant = test: Ras GTP Binding Domain Inhibition Assay (Ras Superfamily Assay); settings: for KRas G12D mutant + SOS: % inh.: with SOS; for KRas G12D mutant: % inh.: without SOS
Summary of the method: (§1)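 His-tagged GTPases immobilised on nickel-coated plates, pre-incubated with compound (20 μM single point, or serial dilution for IC50) 3 h at room temperature, with or without 10-30 μg/mL Sos (residues 556-1049) in the final hour. Bound Cy3- or Cy5-GTP (100 nM, 45 min) measured by fluorescence after washing.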

KRas wild type = test: as above; settings: for KRas wild type + SOS: % inh.: with SOS; for KRas wild type: % inh.: without SOS
Summary of the method: as §1

Rac-1 = molecular target: T1, Rac-1 (Homo sapiens, UniProt P63000); test: as above; settings: read-out: Rac-1: % inh.
T1 construct: made in house
Summary of the method: as §1

KRas G12D mutant + SOS: % inh. (KRas G12D mutant; 20 μM compound) | KRas G12D mutant: % inh. (KRas G12D mutant; 20 μM compound) | KRas wild type + SOS: % inh. (KRas wild type; 20 μM compound) | KRas wild type: % inh. (KRas wild type; 20 μM compound) | inhibition at 20 µM (Rac-1) [%] | KRas G12D mutant + SOS: % inh. (KRas G12D mutant; at 20 μM) | KRas G12D mutant: % inh. (KRas G12D mutant; at 20 μM) | KRas wild type + SOS: % inh. (KRas wild type; at 20 μM) | KRas wild type: % inh. (KRas wild type; at 20 μM) | Compound | % inh of Akt phosphorylation in Panc-1 (Akt phosphorylation)
C (C = 50-75% inhibition) | B (B = 26-49% inhibition) | D (D = 76-100% inhibition) | C (C = 50-75% inhibition) | 50 to 75 |  |  |  |  | CCNC(=O)c1c(-c2ccn(C)n2)cn2nc(-c3nccn3C)nc(Nc3cc(OC)ccn3)c12 [Compound 173, N-Ethyl-4-((4-methoxypyridin-2-yl)amino)-2-(1-methyl-1H-imidazol-2-yl)-6-(1-methyl-1H-pyrazol-3-yl)pyrrolo[2,1-f][1,2,4]triazine-5-carboxamide] | C* (46-84% activation)
B (B = 26-49% inhibition) | B (B = 26-49% inhibition) | B (B = 26-49% inhibition) | B (B = 26-49% inhibition) | 50 to 75 |  |  |  |  | COc1ccnc(Nc2nc(-c3nccn3C)nn3cc(-c4ccn(C)n4)c(C(=O)NCC(F)(F)F)c23)c1 [Compound 174, 4-((4-Methoxypyridin-2-yl)amino)-2-(1-methyl-1H-imidazol-2-yl)-6-(1-methyl-1H-pyrazol-3-yl)-N-(2,2,2-trifluoro-ethyl)pyrrolo[2,1-f][1,2,4]triazine-5-carboxamide] | D* (85-100% activation)
D (D = 76-100% inhibition) | C (C = 50-75% inhibition) | D (D = 76-100% inhibition) | D (D = 76-100% inhibition) | 26 to 49 |  |  |  |  | COc1ccnc(Nc2nc(-c3nccn3C)nn3cc(-c4ccn(C)n4)c(C(=O)NC4CC4)c23)c1 [Compound 175, N-Cyclopropyl-4-((4-methoxypyridin-2-yl)amino)-2-(1-methyl-1H-imidazol-2-yl)-6-(1-methyl-1H-pyrazol-3-yl)pyrrolo[2,1-f][1,2,4]triazine-5-carboxamide] | D* (85-100% activation)
D (D = 76-100% inhibition) | D (D = 76-100% inhibition) | D (D = 76-100% inhibition) | D (D = 76-100% inhibition) | 76 to 100 |  |  |  |  | COCCNC(=O)c1c(-c2ccn(C)n2)cn2nc(-c3nccn3C)nc(Nc3cc(OC)ccn3)c12 [Compound 176, N-(2-Methoxyethyl)-4-((4-methoxypyridin-2-yl)amino)-2-(1-methyl-1H-imidazol-2-yl)-6-(1-methyl-1H-pyrazol-3-yl)pyrrolo[2,1-f][1,2,4]triazine-5-carboxamide] | D* (85-100% activation)
D (D = 76-100% inhibition) | C (C = 50-75% inhibition) | D (D = 76-100% inhibition) | D (D = 76-100% inhibition) | 76 to 100 |  |  |  |  | COc1ccnc(Nc2nc(-c3nccn3C)nn3cc(-c4ccn(C)n4)c(C(=O)NCCN(C)C)c23)c1 [Compound 177, N-(2-(Dimethylamino)ethyl)-4-((4-methoxypyridin-2-yl)amino)-2-(1-methyl-1H-imidazol-2-yl)-6-(1-methyl-1H-pyrazol-3-yl)pyrrolo[2,1-f][1,2,4]triazine-5-carboxamide] | A* (1-25% activation)
D (D = 76-100% inhibition) | D (D = 76-100% inhibition) | D (D = 76-100% inhibition) | D (D = 76-100% inhibition) | 76 to 100 |  |  |  |  | COc1ccnc(Nc2nc(-c3nccn3C)nn3cc(-c4ccn(C)n4)c(C(=O)N4CCCC4)c23)c1 [Compound 178, (4-((4-Methoxypyridin-2-yl)amino)-2-(1-methyl-1H-imidazol-2-yl)-6-(1-methyl-1H-pyrazol-3-yl)pyrrolo[2,1-f][1,2,4]triazin-5-yl)(pyrrolidin-1-yl)methanone] | D* (85-100% activation)
D (D = 76-100% inhibition) | D (D = 76-100% inhibition) | D (D = 76-100% inhibition) | D (D = 76-100% inhibition) | 76 to 100 |  |  |  |  | COc1ccnc(Nc2nc(-c3nccn3C)nn3cc(-c4ccn(C)n4)c(C(=O)N4CCOCC4)c23)c1 [Compound 179, (4-((4-Methoxypyridin-2-yl)amino)-2-(1-methyl-1H-imidazol-2-yl)-6-(1-methyl-1H-pyrazol-3-yl)pyrrolo[2,1-f][1,2,4]triazin-5-yl)(morpho-lino)methanone] | D* (85-100% activation)
D (D = 76-100% inhibition) | D (D = 76-100% inhibition) | D (D = 76-100% inhibition) | D (D = 76-100% inhibition) | 76 to 100 |  |  |  |  | Cc1c(-c2ccn(C)n2)cn2nc(-c3nccn3C)nc(Nc3cc(OCCNC(=O)CCCC[C@H]4SC[C@H]5NC(=O)N[C@H]54)ccn3)c12 [Compound 186, N-(2-((2-((5-Methyl-2-(1-methyl-1H-imidazol-2-yl)-6-(1-methyl-1H-pyrazol-3-yl)pyrrolo[2,1-f][1,2,4]triazin-4-yl)amino)pyridin-4-yl)oxy)ethyl)-5-((3aR,4R,6aS)-2-oxohexahydro-1H-thieno[3,4-d]imidazol-4-yl)pentanamide] | A* (1-25% activation)
 |  |  |  | 76 to 100 | D (D = 76-100% inhibition) | D (D = 76-100% inhibition) | D (D = 76-100% inhibition) | D (D = 76-100% inhibition) | COc1ccnc(Nc2nc(-c3nccn3C)nn3cc(-c4ccn(CCN)n4)c(C)c23)c1 [Compound 187, 6-(1-(2-Aminoethyl)-1H-pyrazol-3-yl)-N-(4-methoxypyridin-2-yl)-5-methyl-2-(1-methyl-1H-imidazol-2-yl)pyrrolo[2,1-f][1,2,4]triazin-4-amine] | C* (46-84% activation)
 |  |  |  | 76 to 100 | D (D = 76-100% inhibition) | D (D = 76-100% inhibition) | D (D = 76-100% inhibition) | D (D = 76-100% inhibition) | COc1ccnc(Nc2nc(-c3nccn3CCN)nn3cc(-c4ccn(C)n4)c(C)c23)c1 [Compound 188, 2-(1-(2-Aminoethyl)-1H-imidazol-2-yl)-N-(4-methoxypyridin-2-yl)-5-methyl-6-(1-methyl-1H-pyrazol-3-yl)pyrrolo[2,1-f][1,2,4]triazin-4-amine] | A* (1-25% activation)
 |  |  |  | 1 to 25 | A (A = 1-25% inhibition) | A (A = 1-25% inhibition) | 0 (0 = 0% inhibition) | 0 (0 = 0% inhibition) | Cn1ccnc1-c1nc(O)c2c(-c3ccccc3)c(-c3cccnc3)cn2n1 [Compound 189, 2-(1-Methyl-1H-imidazol-2-yl)-5-phenyl-6-(pyridin-3-yl)pyrrolo[2,1-f][1,2,4]triazin-4-ol] | B (26-49% inhibition)
 |  |  |  | 1 to 25 | B (B = 26-49% inhibition) | B (B = 26-49% inhibition) | B (B = 26-49% inhibition) | A (A = 1-25% inhibition) | CO[C@H]1C[C@@H](Nc2nc(-c3nccn3C)nn3cc(-c4cccnc4)c(-c4ccccc4)c23)C1 [Compound 191, N-((1s,3s)-3-Methoxycyclobutyl)-2-(1-methyl-1H-imidazol-2-yl)-5-phenyl-6-(pyridin-3-yl)pyrrolo[2,1-f][1,2,4]triazin-4-amine] | D* (85-100% activation)
 |  |  |  | 1 to 25 | B (B = 26-49% inhibition) | B (B = 26-49% inhibition) | B (B = 26-49% inhibition) | B (B = 26-49% inhibition) | CO[C@H]1C[C@H](Nc2nc(-c3nccn3C)nn3cc(-c4cccnc4)c(-c4ccccc4)c23)C1 [Compound 192, N-((1r,3r)-3-Methoxycyclobutyl)-2-(1-methyl-1H-imidazol-2-yl)-5-phenyl-6-(pyridin-3-yl)pyrrolo[2,1-f][1,2,4]triazin-4-amine] | D* (85-100% activation)
 |  |  |  | 1 to 25 | A (A = 1-25% inhibition) | A (A = 1-25% inhibition) | 0 (0 = 0% inhibition) | A (A = 1-25% inhibition) | COCCNc1nc(-c2nccn2C)nn2cc(-c3cccnc3)c(-c3ccccc3)c12 [Compound 195, N-(2-Methoxyethyl)-2-(1-methyl-1H-imidazol-2-yl)-5-phenyl-6-(pyridin-3-yl)pyrrolo[2,1-f][1,2,4]triazin-4-amine] | D* (85-100% activation)
